In patent publication US8530652B2, “Pyrrolopyrazoles, potent kinase inhibitors” (Agouron Pharmaceuticals, Inc., priority 2005, dated 2013) one finds Ki and EC50 data, which are given here for five compounds.

A value given as a limit tells only on which side of the number the result lay.

In experiment [1] the target is PAK4 kinase domain (PAK4 KD) (Homo sapiens (Human), UniProt O96013). Put plainly: PAK4 kinase domain enzymatic assay (coupled PK/LDH, NADH absorbance at 340 nm). The class given is biochemical. Conditions: PAK4 kinase domain, 25 nM PAK4 KD, 0.04 mM ATP, pH 7.5.
For experiment [2], the target named is PAK4 kinase activity in whole cells (TR-293-KDG, modified HEK 293 overexpressing GEF-H1b and PAK4 KD) (Homo sapiens (Human), UniProt O96013). Put plainly: PAK4 cellular assay: sandwich ELISA of PAK4-dependent phosphorylation of GEF-H1b in TR-293-KDG cells. Conditions: doxycycline-induced, 3-hour exposure, phospho-GEF-H1b ELISA. Format: cell-based. The method in brief: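 HEK 293-derived TR-293-KDG cells overexpressing GEF-H1b, with PAK4 kinase domain induced overnight by doxycycline, then exposed to compound for 3 h. Lysates captured on anti-HA plates; phospho-GEF-H1b detected by phosphospecific antibody in sandwich ELISA. EC50 from four-parameter sigmoid fit.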
Sequence of PAK4 kinase activity in whole cells (TR-293-KDG, modified HEK 293 overexpressing GEF-H1b and PAK4 KD) (O96013 321-572): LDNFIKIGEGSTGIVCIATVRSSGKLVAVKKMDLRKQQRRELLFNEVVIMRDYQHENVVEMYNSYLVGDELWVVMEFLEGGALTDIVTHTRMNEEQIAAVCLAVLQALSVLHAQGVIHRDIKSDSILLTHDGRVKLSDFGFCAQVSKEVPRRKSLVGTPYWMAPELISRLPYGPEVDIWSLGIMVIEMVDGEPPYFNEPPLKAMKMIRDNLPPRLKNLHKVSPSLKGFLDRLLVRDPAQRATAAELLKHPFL

Sequence of PAK4 kinase domain (PAK4 KD) (O96013 321-572): as above

On to `Cc1ncnc(Nc2n[nH]c3c2CN(C(=O)O[C@H](CN(C)C)c2ccccc2)C3(C)C)c1F` [Example 77, (1S)-2-(dimethylamino)-1-phenylethyl 3-[(5-fluoro-6-methylpyrimidin-4-yl)amino]-6,6-dimethyl-4,6-dihydropyrrolo[3,4-c]pyrazole-5(1H)-carboxylate], for which the inhibition constant Ki in experiment [1] was 93 nM. In addition, the EC50 in experiment [2] was 69 nM.

Turning to `CN(C)C[C@@H](OC(=O)N1Cc2c(Nc3ncnc4c3ncn4C)n[nH]c2C1(C)C)c1ccccc1` [Example 78, (1S)-2-(dimethylamino)-1-phenylethyl 6,6-dimethyl-3-[(9-methyl-9H-purin-6-yl)amino]-4,6-dihydropyrrolo[3,4-c]pyrazole-5(1H)-carboxylate], in experiment [1], the Ki worked out at 330 nM. In experiment [2], the concentration giving a half-maximal response (EC50) is more than 4000 nM.

`COc1ncc(F)c(Nc2n[nH]c3c2CN(C(=O)O[C@H](CN(C)C)c2ccccc2)C3(C)C)n1` [Example 79, (1S)-2-(dimethylamino)-1-phenylethyl 3-[(5-fluoro-2-methoxypyrimidin-4-yl)amino]-6,6-dimethyl-4,6-dihydropyrrolo[3,4-c]pyrazole-5(1H)-carboxylate] had a Ki in experiment [1] of 39 nM. In experiment [2], the EC50 is less than 3.9 nM.

In experiment [1], `CN(C)C[C@@H](OC(=O)N1Cc2c(Nc3ncncc3F)n[nH]c2C1(C)C)c1ccccc1` [Example 80, (1S)-2-(dimethylamino)-1-phenylethyl 3-[(5-fluoropyrimidin-4-yl)amino]-6,6-dimethyl-4,6-dihydropyrrolo[3,4-c]pyrazole-5(1H)-carboxylate] registered a Ki of 120 nM. The compound also came in with an EC50 in experiment [2] of 20 nM.

For `CN(C)C[C@@H](NC(=O)N1Cc2c(Nc3ncnc4ccoc34)n[nH]c2C1(C)C)c1ccccc1` [Example 83, N-[(1S)-2-(dimethylamino)-1-phenylethyl]-3-(furo[3,2-d]pyrimidin-4-ylamino)-6,6-dimethyl-4,6-dihydropyrrolo[3,4-c]pyrazole-5(1H)-carboxamide], the Ki in experiment [1] was found to be 58 nM. In addition, the response in experiment [2] was half-maximal at 84 nM (EC50).
